Series [1] in a line: MTT assay, nontumor IEC-18 cells. Format: cell-based, rat. The conditions noted are these: rat, IEC-18 normal ileum cells; at the compound's IC50 concentration for HT29 cancer cells. The source says: (§1) Only MA conjugates 7 and 10 were selected to compare the growth inhibitory effects in the three nontumor cell lines (HPF, IEC-18, and WRL68) versus the three cancer cell lines (B16–F10, HT29, and Hep G2). Therefore, the cytotoxic effects on B16–F10 murine melanoma cells were compared with those of HPF normal human epithelial lung fibroblasts, with similar tissue. Similarly, the cytotoxic effects of these conjugates on HT29 colon cancer cells and Hep G2 hepatoma cells were compared with those of nontumor cells of the same tissue, such as IEC-18 normal rat ileum cells and WRL68 normal human embryo liver cells, respectively.
(§2) […] ATTC HTB-38), Hep G2 human hepatocyte carcinoma cells (ECACC 85011430), nontumor human epithelial lung fibroblast cells HPF (ScienCell catalog (cat.) no. 3300), nontumor rat ileum cells IEC-18 (ECACC no. 88011801), and nontumor human embryo liver cells (ECACC 89121403) were cultured in DMEM medium supplemented with 2 mM glutamine, 10% heat-inactivated fetal bovine serum (FCS), 10.000 units/mL penicillin, and […]. These cells were incubated at 37 °C in an atmosphere of 5% CO2 and 95% humidity. The culture media were changed every 48 h, and the confluent cultures were separated with a trypsin solution (0.25% EDTA). Subconfluent monolayer cells were used in all experiments. All cell lines used were provided by the cell bank of the University of Granada (Spain).
(§3) The effect of the synthesized compounds on the viability of tumor cells was assessed using an MTT assay, based on the ability of living cells to cleave the tetrazolium ring, thus producing formazan, which absorbs at 570 nm. The MA conjugates (1–12) were assayed against the selected cancer cell lines. For an evaluation of the cytotoxic effects of these compounds, the cells were seeded in 96-well plates at an initial density of 5 × 10^3 B16–F10 cells, 6 × 10^3 HT29 cells, 15 × 10^3 Hep G2 cells, 8 × 10^3 HPF cells, 15 × 10^3 IEC-18 cells, and 11 × 10^3 WRL68 cells, per well. After incubation for 24 h, the cells were treated with the synthesized compounds in triplicate, at different concentrations (0–200 μg/mL), and incubated for 72 h. Thereafter, 100 μL of MTT solution (0.5 mg/mL) were added to each well. After 2 h of incubation, the cells were washed twice with phosphate buffered saline (PBS), and the formazan was resuspended in 100 μL of DMSO. Relative cell viability, with respect to untreated control cells, was measured by absorbance at 550 nm on an ELISA plate reader (Tecan Sunrise MR20-301, TECAN, Austria). […] These experiments were measured and compared to the control after 72 h of treatment.
A general note: Tetrazolium assays rely on reduction of a dye to a coloured formazan, in cell work by metabolically active cells.

Series [2] has as its system IEC-18 normal rat ileum cells. The series can be described thus: MTT assay, nontumor IEC-18 cells. Format: cell-based. The following applies: Rattus norvegicus, IEC-18; MTT, untreated control = 100% viability; read-out: IC50, growth inhibition of IEC-18 non-tumor cells.
Source text: as §1, §2, §3

Series [3] deals with Hep G2 cells. The series can be described thus: Annexin V-FITC/PI flow cytometry (apoptosis), Hep G2. The series is classed as cell-based, human. The conditions noted are these: Hep G2, 72 h at IC50 concentration, mean ± S.E.M. The method, then:
In consideration of the cytotoxic results of these triterpene conjugates with the three cell lines assayed, three MA–diamine–coumarin conjugates (1, 4, and 7) and the MA–coumarin conjugate 10 were selected for the following cytometry studies on the three cancer cell lines. Thus, the apoptotic determination assays were performed through double staining with Annexin V (An-V), conjugated fluorescein isothiocyanate (FITC), and propidium iodide (PI). […] The values of percentage of total apoptosis were expressed as means ± SEM of at least two duplicate experiments (Figure 1).
Apoptosis was assessed by flow cytometry using a FACScan (fluorescence-activated cell sorter) flow cytometer (Coulter Corporation, Hialeah, FL, USA). For these assays, 5 × 10^4 B16–F10, 6 × 10^4 HT29 cells, and 15 × 10^4 Hep G2 cells were placed in 24-well plates with 1.5 mL of medium and incubated for 24 h. Subsequently, the cells were treated with the selected compounds in triplicate for 72 h at their corresponding IC50 concentrations. The cells were collected and resuspended in a binding buffer (10 mM HEPES/NaOH, pH 7.4, 140 mM NaCl, 2.5 mM CaCl2). Annexin V-FITC conjugate (1 mg/mL) was then added and incubated for 15 min at room temperature in darkness. Just before the analysis by flow cytometry, cells were stained with 20 μL of 1 mg/mL PI solution. In each experiment, approximately 10 × 10^3 cells were analyzed, and the experiment was duplicated twice.

A short description of series [4]: MTT assay, nontumor WRL68 cells. Format: cell-based, human. The following applies: human, WRL68 normal embryo liver cells; at the compound's IC50 concentration for Hep G2 cancer cells.
Source text: as §1, §2, §3

Series [5] relates to WRL68 normal human embryo liver cells. The series can be described thus: MTT assay, nontumor WRL68 cells. Format: cell-based. The conditions noted are these: Homo sapiens, WRL68; MTT, untreated control = 100% viability; read-out: IC50, growth inhibition of WRL68 non-tumor cells.
Source text: as §1, §2, §3

Series [6] has as its system HPF normal human epithelial lung fibroblasts. The series can be described thus: MTT assay, nontumor HPF cells. Format: cell-based. The conditions noted are these: Homo sapiens, Fibroblast; MTT, untreated control = 100% viability; read-out: IC50, growth inhibition of HPF non-tumor cells.
Source text: as §1, §2, §3

Series [7] is described as follows: MTT assay, nontumor HPF cells. Format: cell-based, human. The following applies: human, HPF normal lung fibroblast cells; at the compound's IC50 concentration for B16–F10 cancer cells; read-out: percent viability (% viability) of HPF cells.
Source text: as §1, §2, §3

Series [8] concerns Hep G2 cells. The series can be described thus: Mitochondrial-membrane potential (Rh123) flow cytometry, Hep G2. Format: cell-based, human. The conditions noted are these: Hep G2, 72 h at IC50 concentration. The method, then: The study of the loss of the mitochondrial-membrane potential (MMP) of tumor cells, when treated with drugs, can provide information on the activation mechanism of apoptosis. This activation can occur extrinsically when MMP is not altered, and intrinsically when a loss of this potential is caused by mitochondrial disruption. […] The values of percentage of cell population were expressed as means ± SEM of at least two experiments in duplicate. Changes in MMP were analyzed by monitoring cell fluorescence after staining with rhodamine 123 (Rh123).
The electrochemical gradient across the mitochondrial membrane was examined by analytical flow cytometry, using dihydrorhodamine (DHR), which in contact with living cells, oxidized to form highly fluorescent rhodamine 123 (Rh123). The fluorescence emitted can be monitored by fluorescence spectroscopy using excitation and emission wavelengths of 500 and 536 nm, respectively. […] Following treatment, the culture medium was renewed with fresh medium by adding 0.5 mL of DHR, for a final concentration of […]. Cells were incubated for 1 h at 37 °C in an atmosphere of 5% CO2 and 95% humidity and subsequently washed and resuspended in PBS. The fluorescence intensity was measured using a FACScan flow cytometer (fluorescence-activated cell sorter). The experiments were performed three times with two replicates per assay.
On the technique in general: A flow cytometer gives signals particle by particle.

A word on the viability: it is a per cent measure of how many cells are alive, often set against a control. Usually IC50 stands for the midpoint of a concentration-inhibition curve.

Where “and” joins values, the source holds several entries; their conditions need not be identical. Equal values may be shown once.

As for `CC1(C)CC[C@]2(C(=O)NCCCNC(=O)/C=C/c3ccc(O)cc3)CC[C@]3(C)C(=CC[C@@H]4[C@@]5(C)C[C@@H](O)[C@H](O)C(C)(C)[C@@H]5CC[C@]43C)[C@@H]2C1` [Compound 7, 2α,3β-Dihydroxy-N-(3′-((E)-3″-(4‴-hydroxyphenyl)acrylamido)propyl)olean-12-en-28-amide], the viability at 72 h in series [1] stood at 88 ± 0.6%. In series [2], the IC50 is 19.6 ± 0.3 µM. Besides, in the series with Hep G2 cells [3], the “Early Apoptosis” value was 57.4 ± 4.3%; the “Late Apoptosis” value came out at 18.6 ± 3.2%; the Necrosis is recorded as 2.2 ± 0.6%; the “Total Apoptosis” value was 75.9 ± 2.0% and 76%. Further, in the series with Hep G2 cells [3], the “Viable Cells” value came to 21.9 ± 1.3%. In addition, in series [4], the viability at 72 h was determined as 61.4 ± 1.3%. Further, the IC50 in series [5] came to 16.3 ± 0.9 µM. Also, the IC50 in series [6] worked out at 38.8 ± 1.3 µM. Besides, in series [7], the viability at 72 h was 76.9 ± 2.9%.
Turning to `CC1(C)CC[C@]2(C(=O)NCCCNC(=O)c3cc4ccccc4oc3=O)CC[C@]3(C)C(=CC[C@@H]4[C@@]5(C)C[C@@H](O)[C@H](O)C(C)(C)[C@@H]5CC[C@]43C)[C@@H]2C1` [Compound 1, 2α,3β-Dihydroxy-N-(3′-(2″-oxo-2″H-chromene-3″-carboxamido)propyl)olean-12-en-28-amide], in the series on Hep G2 cells [3], the “Early Apoptosis” value came to 50.1 ± 4.5%, the “Late Apoptosis” value came out at 19.4 ± 4.8%, the Necrosis stood at 1.8 ± 0.4% and the “Total Apoptosis” value stood at 69.5 ± 2.3%. Further, the “Viable Cells” value in the series on Hep G2 cells [3] was 28.8 ± 2.8%. The “Rh123 staining (mitochondrial-membrane potential)” value (“Rh123 staining” for short) in the series with Hep G2 cells [8] was “negative Rh123 staining”.
`CC1(C)CC[C@]2(C(=O)O)CC[C@]3(C)C(=CC[C@@H]4[C@@]5(C)C[C@@H](OC(=O)c6cc7ccccc7oc6=O)[C@H](OC(=O)c6cc7ccccc7oc6=O)C(C)(C)[C@@H]5CC[C@]43C)[C@@H]2C1` [Compound 10]: the viability at 72 h in series [1] amounted to 89.3 ± 2.2%. For the same compound, in series [2], the IC50 is 7.4 ± 0.7 µM. Also, in the series on Hep G2 cells [3], the “Early Apoptosis” value is 19.2 ± 4.9%, the “Late Apoptosis” value came to 21.6 ± 3.2%, the Necrosis amounted to 4.2 ± 1.1% and the “Total Apoptosis” value is 40.8 ± 3.2%. In addition, the “Viable Cells” value in the series with Hep G2 cells [3] turned out to be 55.0 ± 1.4%. The “Rh123 staining” value in the series on Hep G2 cells [8] is given as “negative Rh123 staining”. The same compound returned a viability at 72 h in series [4] of 87.4 ± 1.7%. The IC50 in series [5] was found to be 6.2 µM. In series [6], the IC50 was 24.5 ± 1.9 µM. Also, in series [7], the viability at 72 h worked out at 92.9 ± 2.9%.
For `CC1(C)CC[C@]2(C(=O)NCCCNC(=O)Cc3cc(=O)oc4cc(O)ccc34)CC[C@]3(C)C(=CC[C@@H]4[C@@]5(C)C[C@@H](O)[C@H](O)C(C)(C)[C@@H]5CC[C@]43C)[C@@H]2C1` [Compound 4, 2α,3β-Dihydroxy-N-(3′-(2″-(7‴-hydroxy-2‴-oxo-2‴H-chromen-4‴-yl)acetamido)propyl)olean-12-en-28-amide], in the series on Hep G2 cells [3], the “Early Apoptosis” value was determined as 48.5 ± 3.8%, the “Late Apoptosis” value turned out to be 20.1 ± 5.3%, the Necrosis came out at 1.9 ± 0.2% and the “Total Apoptosis” value turned out to be 68.5 ± 1.6%. Also, in the series on Hep G2 cells [3], the “Viable Cells” value stood at 29.7 ± 1.3%. In addition, the “Rh123 staining” value with Hep G2 cells [8] is “negative Rh123 staining”.

The values are drawn from article PMC8476055, “Synthesis and Biological Activity of Triterpene–Coumarin Conjugates” (Journal of Natural Products, 2021).
